Experimental data taken from patent US11473151B2, “Diagnostic and therapeutic methods for cancer” (Genentech, Inc., priority 2017, dated 2022).
Entries after “also recorded” stand apart in the source; their conditions may differ.

Test system: UC, NSCLC, TNBC and PDAC patients
Test: Validation of the 6-gene signature (6TBRS) in atezolizumab clinical trials (IMvigor210, POPLAR)
Format: in vivo, human
Conditions: patients with high expression of the 6-gene signature
Excerpt: We developed a pan-tissue 6-gene F-TBRS based on the 19-gene Pan-F-TBRS data described above but further prioritizing TGF-β pathway components (TGFB1 and TGFBR2) and targets (CTGF, ADAM19, ACTA2, and COMP). To validate the predictive value of the 6-gene signature, we calculated hazard ratios for prognostic effects (using univariate continuous Cox proportional hazards regression models) and predictive effects, and calculated hazard ratios for predictive effects (using the log-rank test with median cutoff) in atezolizumab clinical trials. […] See, e.g., FIGS. 6B and 6C, which show data from IMvigor210 and the POPLAR study (NCT01903993), respectively.

For “atezolizumab: anti-PD-L1 antibody (Genentech), CAS Registry Number 1422185-06-5, also known as MPDL3280A”, the response/benefit from monotherapy was “lack of benefit; also recorded: lack of response” and the response/benefit from monotherapy (listed as atezolimumab) was “lack of response”.
